Assay results published in patent US10239825B2, “Ketamine derivatives” (Auckland Uniservices Limited, priority 2013, dated 2019).

Key:
[1] = test system: adult female Sprague-Dawley rats; experiment: rat infusion study: loss/recovery of righting reflex and walk (anaesthetic effect); assay type: in vivo; conditions: for minimal effective dose: Rattus norvegicus, iv, read-out: LRR Dose; for minimal effective dose / LRR Dose: total drug administered to achieve loss of righting reflex, i.v. infusion; for LRR Dose, head-to-head ratio to ketamine / LRR Time, head-to-head ratio to ketamine / RRR Time, head-to-head ratio to ketamine / Walk Time, head-to-head ratio to ketamine: ratio compound/ketamine; for Walk Time: time from end of infusion to independent locomotion; for RRR Time: time from end of infusion to recovery of righting reflex; for LRR Time: time from onset of i.v. infusion to loss of righting reflex, 20 mg/kg/min initially
Description: (§1) All animal experiments were conducted at the Ruakura Research Centre, Hamilton, New Zealand, using experimental protocols reviewed and approved by the Ruakura Animal Ethics Committee (ethics ref 12604).
(§2) Following acquisition of baseline physiologic parameters (heart rate, respiratory rate, PWR, and righting reflex (RR)) adult female Sprague-Dawley rats of approximately 350-450 g were put under non-traumatic restraint and the marginal vein of the tail was cannulated. Ketamine or a compound of the invention at 10 mg/ml was administered via a minibore extension tube adequately secured to the tail. Infusions were commenced at a rate (weight-adjusted) to deliver 20 mg/kg/min initially (until the pedal withdrawal reflex score PWR=1), then were reduced to a rate of 6.7 mg/kg/min. Infusion rate was then titrated in an up-and-down fashion to maintain dorsal recumbency and a PWR=1 to 10 minutes before cessation. Three rats were used in each study, with each group of rats also acting as their own ketamine control. The order of study drug administration was determined by prior odds/evens randomisation with a recovery interval of at least one hour afforded between experiments. PWR and RR were recorded at 1 minute intervals throughout. The times from cessation of infusion to return of righting reflex (RRR), and from cessation of infusion to the animals displaying independent locomotion (walk) were recorded.
Loss of Righting Reflex (LRR):
This is primarily used to assess anaesthetic hypnotic effect. Righting reflex is judged absent when the rat fails to right from a position of dorsal recumbency to a position of sternal recumbency on three attempts performed in rapid succession. Dose to LRR is termed effective potency.

[2] = test system: adult female Sprague-Dawley rats; experiment: rat infusion study: pedal withdrawal reflex PWR = 1 (analgesic effect); assay type: in vivo; conditions: for minimal effective dose: Rattus norvegicus, iv; for minimal effective dose / PWR = 1 Dose: total drug administered to achieve PWR = 1, i.v. infusion; for PWR = 1 Dose, head-to-head ratio to ketamine / PWR = 1 Time, head-to-head ratio to ketamine: ratio compound/ketamine; for PWR = 1 Time: time from onset of i.v. infusion to PWR = 1
Description: as §1, §2
Pedal Withdrawal Reflex (PWR) Scoring:
Nociceptive testing in animals was conducted via 1 second application of constant pressure (firm digital pressure) over the forepaw of the animal. Pedal withdrawal reflex testing is primarily used to assess analgesic effect, and responses are graded accordingly: 0, absent; 1, flicker; 2, moderate withdrawal; 3, fast withdrawal; 4, Fast withdrawal with cry/preceding apnoea (modified from Buitrago, S. et al. J. Amer. Assoc. Lab. Animal. Sci. 2008, 47, 11-17).

| Compound | minimal effective dose [1] | LRR Dose, head-to-head ratio to ketamine [1] | LRR Time, head-to-head ratio to ketamine [1] | RRR Time, head-to-head ratio to ketamine [1] | Walk Time, head-to-head ratio to ketamine [1] | Walk Time [1] | RRR Time [1] | LRR Time [1] | minimal effective dose [2] | PWR = 1 Dose, head-to-head ratio to ketamine [2] | PWR = 1 Time, head-to-head ratio to ketamine [2] | PWR = 1 Time [2] | melting point | potency (in words) ([1]; rat infusion study, discussion) | recovery (in words) ([1]; rat infusion study, discussion) | LRR Dose [1] | PWR = 1 Dose [2] | recovery, fold faster than ketamine ([1]; after discontinuation of infusion) | properties of racemate versus enantiomer (in words) ([1]; rat infusion study, discussion) |
| --- | --- | --- | --- | --- | --- | --- | --- | --- | --- | --- | --- | --- | --- | --- | --- | --- | --- | --- | --- |
| CC(C)OC(=O)CCCCNC1(c2ccccc2Cl)CCCCC1=O.Cl (racemic) [rac-C4iPr, Isopropyl 5-((1-(2-chlorophenyl)-2-oxocyclohexyl)amino)pentanoate Hydrochloride] | 38 mg/kg | 2.00 | 2.26 | 1.78 | 1.17 | 320 s | 180 s | 122 s | 38 mg/kg | 1.73 | 1.85 | 122 s | 161 to 163 °C |  |  |  |  |  |  |
| CCOC(=O)CCCCNC1(c2ccccc2Cl)CCCCC1=O.Cl (racemic) [rac-C4Et, Rac-Ethyl 5-((1-(2-chlorophenyl)-2-oxocyclohexyl)amino)pentanoate hydrochloride] | 34 ± 4 mg/kg | 2.00 | 1.73 | 0.09 | 0.05 | 158 ± 22 s | 134 ± 22 s | 97 ± 8 s | 57 ± 12 mg/kg | 2.48 | 2.26 | 172 ± 36 s | 169 to 172 °C |  |  |  |  |  |  |
| CCOC(=O)CCN[C@]1(c2ccccc2Cl)CCCCC1=O.Cl [(S)-C2Et, (S)-Ethyl 3-((1-(2-chlorophenyl)-2-oxocyclohexyl)amino) propanoate Hydrochloride] |  | 2.95 | 3.22 | 0.05 | 0.04 | 80 ± 8 s | 62 ± 8 s | 171 ± 54 s |  | 2.38 | 2.53 | 185 ± 55 s |  | only half as potent | faster recoveries than the corresponding racemates | 59 ± 19 mg/kg | 62 ± 20 mg/kg |  |  |
| CC(=O)OCCCN[C@]1(c2ccccc2Cl)CCCCC1=O.Cl [(S)-C3OAc, (S)-3-((1-(2-Chlorophenyl)-2-oxocyclohexyl)amino)propyl Acetate Hydrochloride] | 26 ± 3 mg/kg | 1.30 | 1.37 | 0.65 | 0.51 | 983 ± 93 s | 566 ± 30 s | 81 ± 10 s | 34 ± 1 mg/kg | 1.10 | 1.12 | 104 ± 7 s |  | about as potent as ketamine |  |  |  | 1.5-2 fold |  |
| CC(C)OC(=O)CCCNC1(c2ccccc2Cl)CCCCC1=O.Cl (racemic) [rac-C3iPr, Isopropyl 4-((1-(2-chlorophenyl)-2-oxocyclohexyl)amino)butanoate hydrochloride] | 42 ± 9 mg/kg | 1.83 | 1.81 | 0.042 | 0.08 | 110 ± 45 s | 37 ± 22 s | 125 ± 21 s | 66 ± 17 mg/kg | 2.36 | 2.29 | 192 ± 47 s | 167 to 169 °C |  |  |  |  |  |  |
| CCOC(=O)CCNC1(c2ccccc2Cl)CCCCC1=O.Cl (racemic) [rac-C2Et, Ethyl 3-((1-(2-chlorophenyl)-2-oxocyclohexyl)amino)propanoate Hydrochloride] | 48 ± 23 mg/kg | 1.78 | 1.75 | 0.11 | 0.10 | 253 ± 68 s | 177 ± 51 s | 135 ± 61 s | 55 ± 25 mg/kg | 1.45 | 1.62 | 154 ± 68 s | 199 to 202 °C |  |  |  |  |  |  |
| CCCOC(=O)CCCNC1(c2ccccc2Cl)CCCCC1=O.Cl (racemic) [rac-C3nPr, N-Propyl 4-((1-(2-chlorophenyl)-2-oxocyclohexyl)amino)butanoate Hydrochloride] |  | 5.95 | 4.77 | 0.012 | 0.05 | 65 ± 33 s | 10 ± 5.5 s | 329 ± 106 s |  | 7.46 | 6.64 | 558 ± 42 s |  |  |  | 137 ± 48 mg/kg | 209 ± 20 mg/kg |  |  |
| CCCOC(=O)CCNC1(c2ccccc2Cl)CCCCC1=O.Cl (racemic) [rac-C2nPr, N-Propyl 3-((1-(2-chlorophenyl)-2-oxocyclohexyl)amino)propanoate Hydrochloride] |  | 7.28 | 7.92 |  |  | 0 s | 0 s | 404 ± 196 s |  | 6.48 | 6.67 | 420 ± 180 s |  |  |  | 131 ± 62 mg/kg | 136 ± 67 mg/kg |  |  |
| COC(=O)CCCCN[C@]1(c2ccccc2Cl)CCCCC1=O.Cl [(S)-C4Me, (S)-Methyl 5-((1-(2-chlorophenyl)-2-oxocyclohexyl)amino)pentanoate Hydrochloride] |  | 1.80 | 1.94 | 0.07 | 0.51 |  |  |  |  | 1.76 | 1.81 |  |  |  |  |  |  |  | broadly equivalent properties |
| COC(=O)CCCCNC1(c2ccccc2Cl)CCCCC1=O.Cl (racemic) [rac-C4Me, Rac-Methyl 5-((1-(2-chlorophenyl)-2-oxocyclohexyl)amino)pentanoate Hydrochloride] | 34 ± 7 mg/kg | 1.70 | 1.31 | 0.090 | 0.086 | 126 ± 32 s | 99 ± 16 s | 92 ± 14 s | 44 ± 10 mg/kg | 2.00 | 1.53 | 124 ± 21 s |  |  |  |  |  |  | broadly equivalent properties |
| CC(=O)OCCCNC1(c2ccccc2Cl)CCCCC1=O.Cl (racemic) [rac-C3OAc, Rac-3-((1-(2-Chlorophenyl)-2-oxocyclohexyl)amino)propyl Acetate Hydrochloride] |  |  |  |  |  |  |  |  |  |  |  |  | 180 to 183 °C |  |  |  |  |  |  |
| CCCOC(=O)CCCCNC1(c2ccccc2Cl)CCCCC1=O.Cl (racemic) [rac-C4nPr, N-Propyl 5-((1-(2-chlorophenyl)-2-oxocyclohexyl)amino)pentanoate Hydrochloride] |  | 3.56 | 4.17 | 0.05 | 0.08 | 90 ± 30 s | 45 ± 15 s | 271 ± 97 s |  | 3.19 | 3.60 | 277 ± 97 s |  |  |  | 82 ± 34 mg/kg | 83 ± 34 mg/kg |  |  |
